Experimental data: patent US20080280810A1, “PEPTIDES HAVING AFFINITY FOR BODY SURFACES” (priority 2006, published 2008)
Blank lines part the entries; values can stand above or below the molecule they belong to.

Experiments:
[1] = Phage ELISA, bovine polished enamel binding assay; details: over 10^10 pfu purified phage, anti-M13 HRP conjugate, TMB, no phage control 0.193
Procedure: (§1) A total of 11 selected phage candidates (Example 32) was used in a phage ELISA experiment. Purified phage lysates were used for binding to the enamel blocks using an anti-M13 phage antibody conjugated to horseradish-peroxidase, followed by the addition of chromogenic agent TMB, obtained from Pierce Biotechnology (Rockford, Ill.). The plates were read at A450 nm.
(§2) For each phage candidate to be tested, the polished and unpolished enamel blocks were incubated for 1 h at room temperature with 200 μL of blocking buffer, consisting of 2% non-fat dry milk (Schleicher & Schuell, Inc.) in TBS. The blocking buffer was removed by aspirating the liquid out of each tube. The tube was rinsed 6 times with wash buffer consisting of TBST-0.05%. The wells were filled with 200 μL of TBST-0.5% containing 1 mg/mL BSA and then 10 μL (over 10^10 pfu) of purified phage stock was added. The samples were incubated at room temperature for 60 min with slow shaking. The non-binding phage was removed by washing 6 times with TBST-0.5%. Then, 100 μL of horseradish peroxidase/anti-M13 antibody conjugate (Amersham USA, Piscataway, N.J.), diluted 1:500 in the blocking buffer, was added and incubated for 1 h at room temperature. The conjugate solution was removed and was washed 6 times with TBST-0.5%. TMB substrate (200 μL), obtained from Pierce Biotechnology (Rockford, Ill.) was added to each well and the color was allowed to develop for 5 to 30 min, typically for 10 min, at room temperature. Then, stop solution (200 μL of 2 M H2SO4) was added to each well and the solution was transferred to a 96-well plate and the A450 was measured using a microplate spectrophotometer (Molecular Devices, Sunnyvale, Calif.). BoEn means bovine enamel and BoEn P means polished bovine enamel.

[2] = Phage ELISA, bovine enamel binding assay; details: over 10^10 pfu purified phage, anti-M13 HRP conjugate, TMB, no phage control 0.112
Procedure: as §1, §2

[3] = Co-application of multi-block peptide with semi-permanent dye (Arianor Ebony), color retention; design: species or system human; key: ΔE of peptide sample minus peptide-free control; larger = better retention; details: difference in Delta E between peptide sample and peptide free control after 3 embrocation cycles (about 12 manual shampoos); pH 8.5-9.0; >2 benefit, >4 substantial benefit
Procedure: (§3) A 0.5% aqueous solution of Arianor Ebony (Sensient Technologies Corp, Milwaukee, Wis.) containing 3% benzyl alcohol and 0.05% diazolidinyl urea (biocide) was prepared. Dye insolubles were removed by filtration and the pH of the dye solution was adjusted to 8.50-9.0, using ethanolamine.
(§4) Approximately 1 mL of the dye solution was added to selected wells of a 24-well plate (Thomson Instrument Co., Oceanside, Calif.; part # 931565). A multi-block peptide (see Table 12) was dissolved in a solution consisting of 3 wt % benzyl alcohol and 95 wt % water to yield a peptide concentration of 2 wt % or approximately 20 mg/mL. The pH was adjusted to 8.5-9.0 using ethanolamine. The peptide solution was then pipetted into test wells containing dye solution in the amount of 1 mL or 0.2 mL respectively. The total volume in each test well was then adjusted to 2 mL where necessary using 3% aqueous benzyl alcohol (pH adjusted to 8.5-9.0 with ethanolamine). Peptide free controls consisted of 1 mL of dye solution diluted to 2 mL with the pH adjusted aqueous benzyl alcohol solution.
(§5) Baseline […] readings were made on one inch long tresses (see below) using an X-RITE® SP78™ Sphere Spectrophotometer (X-Rite, Inc., Grandville, Mich.), by placing the hair tress into the photosensor and calculating L*, a* and b* parameters representing the photometer response. All measurements were the average of three individual determinations.
(§6) The tresses (potted on one end with resin) of natural white, 85% gray or regular bleached hair (International Hair Importers and Products, Bellerose, N.Y.) were immersed in the peptide/dye solution and the entire well plate was agitated on a VORTEX-GENIE® 2 Mixer (Scientific Industries, Bohemia, N.Y.) at a speed setting of 1 for 30 minutes. The tresses were removed from the wells, rinsed for 30 seconds under flowing deionized water and then air dried.
(§7) The following complement of beads was then added to each well containing a hair tress: (8 beads in all; 4 Novagen Coli Rollers Plating Beads—sterilized (EMD Biosciences, San Diego, Calif.; Catalog No. 71013), 2 BioSpec 6.35 mm glass beads (BioSpec Products, Bartlesville, Okla.; Catalog No. 11079635), and 2 BioSpec 3.2 mm Stainless Steel Bead (Catalog No. 11079132ss).
(§8) Then 2.5 mL of aqueous 50% Pantene Pro V® shampoo (Proctor & Gamble Co., Cincinnati, Ohio) was pipetted into each well. The plate was placed on a VWR® VX-2500 Multi-tube Vortexer (VWR, West Chester, Pa.) for 5 minutes to simulate shampooing with embrocation. The hair tresses were then rinsed under flowing deionized water and air dried. This cycle was repeated two more times except that the length of time was 10 minutes for both subsequent embrocation cycles. (This treatment was previously determined to simulate approximately 12 manual shampoo cycles.) At the conclusion of the third embrocation cycle L*, a* and b* values were measured and Delta E values (ΔE) were calculated using equation 1 below:
(§9) where L*=the lightness variable and a* and b* are the chromaticity coordinates of CIELAB colorspace as defined by the International Commission of Illumination (CIE) (Minolta, Precise Color Communication—Color Control From Feeling to Instrumentation, Minolta Camera Co., 1996).
(§10) The Delta E value (ΔE) indicates color retention relative to the non-dyed hair and larger Delta E values indicate better performance. Values listed in the table represent the difference in Delta E values between the peptide-containing sample and the peptide free control. This difference is indicative of color retention after shampoo or water rinse treatments and positive values indicate better performance relative to the peptide free controls (Table 12).

[4] = Color retention after shampoo treatment, peptide as sealant with Acid Red 33 dye; design: species or system human; details: 0.50 wt % Acid Red 33, peptide 0.25 wt %, 30 min contact, after one shampoo treatment; vs uncolored hair; larger = better color retention; dye alone 19.63
Procedure: The peptides used in this Example were prepared as described in Examples 1-3. The color retention was quantified using a spectrophotometric measurement technique.
A peptide given as SEQ ID NO:41, SEQ ID NO:42, or SEQ ID NO:43 (38 mg), produced via fermentation as described in Examples 1-3, was added to 15 g of an aqueous 0.50 wt % solution of Acid Red 33 (Abbey Color, Philadelphia, Pa.) and the solution was allowed to stir for 1 h. A natural white hair tress (1 cm wide, potted, International Hair Importers & Products Inc., Bellerose, N.Y.) was inserted into a 15 mm×125 mm test tube and 13 mL of the peptide/dye mixture was injected into the test tube. The hair tress was immersed in contact with the colorant solution for 30 min and the colorant solution was agitated using a magnetic stirrer. The tress was removed, allowed to drip dry, and then air dried for 30 min.
The hair tress was then subjected to a water rinse using copious amounts of deionized water, followed by a shampoo treatment with embrocation for 30 seconds. The shampoo treatment involved the application of Pantene Pro-V Sheer Volume shampoo (Proctor & Gamble, Cincinnati, Ohio) to the hair as follows. A quarter-sized drop of the shampoo was distributed evenly over the hair tress and then was massaged aggressively into the hair for 30 sec, after which the hair tress was rinsed with water to remove the shampoo. The hair tress was then dried at room temperature. The entire procedure described above was repeated without the addition of the hair-binding peptide to serve as a control.
The color intensity after the shampoo treatment was measured using an X-Rite® SP78™ Sphere Spectrophotometer (X-Rite, Inc., Grandville, Mich.), by placing the colored hair sample into the photosensor and calculating L*, a* and b* parameters representing the photometer response. An initial baseline L* value was measured for the uncolored hair and all measurements were the average of three individual determinations. Delta E values were calculated using equation 1 below: […]

[5] = Co-application of multi-block peptide with semi-permanent dye (Arianor Ebony), color retention; design: species or system human; details: difference in Delta E between peptide sample and peptide free control after 3 embrocation cycles (about 12 manual shampoos); pH 8.5-9.0; >2 benefit, >4 substantial benefit
Procedure: as §3, §4, §5, §6, §7, §8, §9, §10

[6] = Charged multi-block peptide applied to dyed hair (Arianor Sienna Brown, Basic Brown 17) as protective sealant, color loss; design: species or system human; key: ΔE color loss vs peptide-free control; ≥3 units = meaningful difference
Procedure: A 0.5% aqueous Arianor Sienna Brown (Basic Brown 17; Sensient Technologies Corp, Milwaukee, Wis.) solution, containing 3% benzyl alcohol and 0.05% diazolidinyl urea (biocide) was prepared. This dye solution was divided into two equal volumes, one unmodified at pH4 and a second portion adjusted to pH ranged from 8.50 to 9.0, using ethanolamine.
Minitresses (1 inch long) of natural white hair (International Hair Importers and Products, Bellerose, N.Y.) were immersed into the acidic or basic dye solutions for 30 minutes, water rinsed and then air dried overnight. The tresses were then cut into individual sections weighing 30-75 mg each. L*, a*, b* values for individual dyed hair tresses were then measured using a spectrophotometer.
Aqueous peptide solutions varying in concentration were adjusted by addition of ethanolamine to pH […] or made slightly basic (pH 8.5-9.0). The 3% benzyl alcohol diluent was also pH adjusted in the same fashion.
as §7, with “Each cavity of a well plate (Thomson Instrument Co. part no. 931565, 24-10 ml wells), contained the assortment” for “The following complement”, “beads” for “beads was then added to each well containing a hair tress:”
Target peptide and diluent were added using an automatic pipette. Controls without peptide were made using pH-adjusted diluent only. After several minutes of mixing (VORTEX-GENIE® 2, Scientific Industries, Bohemia, N.Y.) a small dyed hair tress was added to each well and stirred for 30 minutes on the vortex mixer. When stirring was complete, the hair tresses were removed from the wells and rinsed under running deionized water for 20-30 seconds.
The wet hair tresses were inserted into a modified well plate into which holes had been drilled to allow them to be air dried. Once the tresses were dried, colorimetric readings were taken for color loss after water rinse. Hair tresses were reinserted into their respective wells along with beads and 2.5 mL of aqueous 50% Pantene Pro V® shampoo was pipetted onto the hair. The plate was placed into a VWR® VX-2500 Multi-tube Vortexer (VWR, West Chester, Pa.) for 5-15 minutes to simulate shampooing with embrocation. The hair tresses were then rinsed under flowing deionized water and air dried. This cycle was repeated according to the number of simulated embrocation cycles desired. Colorimetric data for color loss was compiled and plotted against peptide free controls. A difference of at least 3 Delta E units verses controls was judged to be sufficient for differentiating peptide performance verses peptide free controls.

O.D. at 450 nm [2]: 0.641
Molecule: EPPTRTRVNNHTVTVQAQQH [BoEn P2]

O.D. at 450 nm [2]: 0.665
Molecule: GYCLRGDEPAVCSG [BoEn P3]

O.D. at 450 nm [2]: 0.797
Molecule: NFCETQLDLSVCTV [BoEn P5]

O.D. at 450 nm [2]: 0.83
Molecule: NTCQPTKNATPCSA [BoEn P6]

O.D. at 450 nm [2]: 2.02
Molecule: THNMSHFPPSGHPKRTAT [BoEn P8]

The remaining lines, values behind:

Molecule: AANPHTEWDRDAFQLAMPPK [BoEn 1]
O.D. at 450 nm [1]: 1.402

Molecule: KF11-GGG-GHGHQKQHGLGHGHKHGHGHGHGHGK (PNTSQLSTGGGGHGHQKQHGLGHGHKHGHGHGHGHGK; Peptide having affinity for hair) [HC 81]
ΔE Retention Ebony Dye Regular Bleached Hair [3]: −0.1
ΔE Retention Ebony dye with Natural White Hair [3]: 0.6
Delta E [4]: 31.57
ΔE Retention Ebony Dye with 85% Gray Hair [5]: 7.58

Molecule: LNDQRKPGPPTMPTHSPAVG [BoEn 5]
O.D. at 450 nm [1]: 0.944

Molecule: NTCATSPNSYTCSN [BoEn 6]
O.D. at 450 nm [1]: 2.38

Molecule: SDCTAGLVPPLCAT [BoEn 7]
O.D. at 450 nm [1]: 0.892

Molecule: SSNYNYNYNYQYSSR (Peptide having affinity for hair) [Dye-1, reference compound]
ΔE Loss ([6]; pH 3.9, 12 shampoo equivalents): 14

Molecule: SSNYNYNYNYQYSSR-EGEGER (SSNYNYNYNYQYSSREGEGER; Peptide having affinity for hair) [Dye-1 Anionic]
ΔE Loss ([6]; pH 4.5, 12 shampoo equivalents): 1.93
ΔE Loss ([6]; pH 8.8, 12 shampoo equivalents): 0.34

Molecule: SSNYNYNYNYQYSSR-KRKRKD (SSNYNYNYNYQYSSRKRKRKD; Peptide having affinity for hair) [Dye-1 Cationic]
ΔE Loss ([6]; pH 4.5, 25 shampoo equivalents): 6
ΔE Loss ([6]; pH 8.7, 25 shampoo equivalents): 3.22

Molecule: VGTMKQHPTTTQPPRVSATN [BoEn 9]
O.D. at 450 nm [1]: 0.568

Molecule: YSETPNDQKPNPHYKVSGTK [BoEn 10]
O.D. at 450 nm [1]: 3.942

B1: PG-PMMA9-GAG-PMMA9-GGSGPGSGG-KF11-GS(KGGGS)4-KF11-GGPWKK (peptide)
chain: PGIDTFYMSTMSHSGAGIDTFYMSTMSHSGGSGPGSGGNTSQLSTGSKGGGSKGGGSKGGGSKGGGSNTSQLSTGGPWKK
modifications: Peptide having affinity for hair
ΔE Loss ([6]; pH 5.7, 12 shampoo equivalents): 11.41

B2: PG-PMMA4A-GAG-PMMA4A-GGSGPGSGG-KF11-GGG-KF11-GGPKK (peptide)
chain: PGHTHHDTHKPWPTDAHRNSSVGAGHTHHDTHKPWPTDAHRNSSVGGSGPGSGGNTSQLSTGGGNTSQLSTGGPKK
modifications: Peptide having affinity for hair
ΔE Loss ([6]; pH 5.1, 12 shampoo equivalents): 11.56
ΔE Loss ([6]; pH 8.8, 12 shampoo equivalents): 6.95
